Paper PMC11023993, “Piperine, quercetin, and curcumin identified as promising natural products for topical treatment of cutaneous leishmaniasis” (Parasitology Research, 2024)
Read-outs that look alike come from different tables or passages of the source.

Assays:
[1] = MTT cytotoxicity assay in uninfected U-937 macrophages; conditions: human
Experimental: U-937 (CRL-1593.2™) macrophages (ATCC, Manassas, VA, USA) were cultured in RPMI-1640 medium supplemented with 10% of FBS and incubated at 37 °C in 5% CO2, 95% humidity atmosphere. U-937 cells in the exponential growth phase were recovered, and washed by centrifugation at 1800 rpm for 10 min at room temperature; the pellet was then resuspended in supplemented RPMI 1640 medium and counted in a Neubauer chamber. The number was adjusted to 1 × 10^6 cells per mL and 100 µL was dispensed into each well of a 96-well plate. Then, another 100 µL of each serial dilution of QUE, PIP, CUR, doxorubicin, and amphotericin B was added to each well by triplicate and plates were incubated at 37 °C 5% CO2, 95% humidity atmosphere for 48 h.
The MTT solution is then added to the treated cells, where the yellow MTT is reduced to purple formazan by a variety of mitochondrial and cytosolic enzymes that are operational in viable cells. After 3 h of incubation with MTT, the formazan precipitates. Consequently, the growing medium was removed, the formazan was dissolved in DMSO, and the absorbance of the solution was measured at 570 nm using a microplate reader spectrophotometer (Varioskan Flash, Thermo Fisher Scientific).
Cells exposed to the standard cytotoxic drug doxorubicin were used as an internal control for toxicity (positive control) while cells incubated in the absence of any compound or drug were used as a control for viability (negative control). A solution of 0.5% DMSO was used as a blank solution. Non-specific absorbance was corrected by subtracting absorbance (OD) of the blank. Determinations were done by triplicate in at least two independent experiments.
The OD of viable cells that remained after treatment was compared to the OD of control cells that were not exposed to the drug. The LC50 (median lethal concentration) values and their statistical errors were calculated based on triplicates of the measurement in the independent assays. The LC50 values were determined by non-linear regression using Prism GraphPad 10.
(§1) The LC50 and the EC50 were calculated by Probit analysis using GraphPad Prism 10 (San Diego, CA, USA). Both cytotoxicity and leishmanicidal activity were defined by ranges of values of LC50 and EC50 in terms of high, moderate, or low as follows: high cytotoxicity for LC50 values < 100 µM, moderate cytotoxicity for LC50 values > 100 µM but < 200 µM, and low cytotoxicity for LC50 values > 200 µM. […] In addition, the cytotoxicity in U937 macrophages was correlated with the leishmanicidal activity by calculating the Selectivity Index (SI), using the equation: SI = LC50/EC50 (Indrayanto et al. [2021]).

[2] = tested on: macrophages; parameters: method as in Dos Santos et al. [2022]; conditions: ref Dos Santos et al. [2022], cited from earlier work
[3] = tested on: L. braziliensis; parameters: method as in Dos Santos et al. [2022]; conditions: oral 20 mg/kg five times a week, from 7 days after infection for 8 weeks; ref Dos Santos et al. [2022]; cited from earlier work
[4] = tested on: L. braziliensis amastigotes; parameters: method as in Dos Santos et al. [2022]; conditions: ref Dos Santos et al. [2022], read-out: antiamastigote activity EC50; cited from earlier work
[5] = tested on: L. braziliensis-induced cutaneous leishmaniasis ulcers; test: Histopathological analysis (H-E) of healed ulcers from treated hamsters; format: in vivo, golden hamsters (Mesocricetus auratus); parameters: key to Dermis: oedema (grade) / Dermis: granulomatous inflammation (grade) / Epidermis: orthokeratotic hyperkeratosis (grade) / Epidermis: spongiosis (grade) / Epidermis: ulcer (grade) / Dermis: neovascularization (grade) / Dermis: fibroplasia (grade) / Dermis: leukocytic infiltrate (grade): 0, absent; 1, mild; 2, mild to moderate; 3, moderate; 4, moderate to severe; 5, severe
Experimental: The changes were analyzed under a standard optical microscope.

[6] = tested on: intracellular amastigotes of L. braziliensis; test: In vitro leishmanicidal activity against intracellular amastigotes in infected U-937 macrophages (flow cytometry); format: cell-based, Leishmania braziliensis; conditions: for EC50: Leishmania braziliensis
Experimental: Infective L. braziliensis (MHOM/CO/88/UA301-eGFP) (Pulido et al. [2012]) were cultured in Novy-MacNeal-Nicolle (NNN) biphasic medium at 26 °C for 3 passages maximum. U-937 cells, prepared as described in the previous section, were adjusted to approximately 3 × 10^5 cells per mL of supplemented RPMI 1640 medium containing […] of PMA to induce cell adherence. One mL was dispensed into each well of a 24-well plate and platters were incubated at 37 °C in % CO2, 95% humidity atmosphere for 72 h. Then, adherent cells were infected with fluorescent promastigotes of L. braziliensis in a 15:1 parasite to cell ratio. Plates were incubated again at 34 °C and % CO2, 95% humidity atmosphere. After 24 h, non-phagocytosed parasites were washed by pipetting phosphate buffered solution (PBS) in the plate at room temperature and 500 µL of fresh complete RPMI 1640 medium was added. Then, 500 µL of each serial dilution of QUE, PIP, CUR, and amphotericin B was added to each well and plates were incubated at 34 °C with % CO2, 95% humidity atmosphere. The EC50, the median effective concentration to induce […] killing of the intracellular amastigotes in infected cells, was measured by Flow cytometry at 488 nm of excitation and 525 nm of emission. After 48 h of incubation, cells were harvested with cold dissociation buffer (1x PBS with 2% EDTA) and the harvested cells were washed with buffer (1 × PBS with 2% FBS), and results were analyzed by FlowJo 10. The EC50 was determined with a non-lineal regression using Prism GraphPad 10.
as §1

[7] = tested on: L. major; parameters: method as in Almadani et al. [2021]; conditions: oral 50 mg/kg for 28 consecutive days; ref Almadani et al. [2021]; cited from earlier work
[8] = healed ulcer after topical treatment

O=c1c(O)c(-c2ccc(O)c(O)c2)oc2cc(O)cc(O)c12 [Quercetin, quercetin]
CC50 at 48 h [1]: > 662 µM | concentration giving substantial decrease in macrophage viability [2]: exceeding 640 µM | EC50 ([2]; read-out: macrophage viability, estimated EC50): 478 ± 89 µM | lesion size and parasite load (lesion and draining lymph node) [3]: effectively controlled the lesion size and reduced the parasite load | EC50 [4]: 21 ± 2.5 µM | granulomas and amastigotes in healed skin ([5]; H-E stain, healed skin after topical treatment): No amastigotes are observed | Dermis: fibroplasia (grade) [5, 8]: 3 | Dermis: granulomatous inflammation (grade) [5, 8]: 0 | Dermis: leukocytic infiltrate (grade) [5, 8]: 3 | Dermis: neovascularization (grade) [5, 8]: 2 | Dermis: oedema (grade) [5, 8]: 2 | Epidermis: orthokeratotic hyperkeratosis (grade) [5, 8]: 2 | Epidermis: spongiosis (grade) [5, 8]: 2 | Epidermis: ulcer (grade) [5, 8]: 0 | SI (Selectivity Index = LC50/EC50) ([6]; LC50 U-937 / EC50 L. braziliensis amastigotes): > 20.6 | EC50 ([6]; U-937, amastigote stage of L. braziliensis, read-out: in vitro antileishmanial activity (EC50 in mass units)): 9.7 ± 0.6 µg/mL | EC50 ([6]; intracellular amastigotes of L. braziliensis in U-937 macrophages, 48 h, read-out: EC50 (Median Effective Concentration)): 32 ± 2 µM | Leishmanicidal activity ([6]; class by EC50 on intracellular amastigotes of L. braziliensis): High (high activity corresponds to EC50 values < 50 µM) | histopathological analysis of tissue sections [7]: reduction in inflammatory cell count, an increase in fibroblasts, and enhanced collagen deposition
